Reference: patent publication US20240270821A1, “GIP/GLP1/GCG TRI-RECEPTOR AGONISTS AND USES THEREOF” (priority 2023, published 2024)
Like-named read-outs stand apart in the source and are kept apart here. Starred links: 1 amine or outer side, 2 acyl side, 3 side chain; linkers in the order of their positions; H or OH if unused. Non-standard residues stand in square brackets, D forms with d. Residues, ends and D or L forms follow the SMILES beside them. Groups on a side chain read outwards from the residue. No end group written: not given here. *: point of attachment. C20 diacid = O=C(O)CCCCCCCCCCCCCCCCCCC(=O)*; C18 diacid = O=C(O)CCCCCCCCCCCCCCCCC(=O)*; αMePhe(2-F) = C[C@](N)(Cc1ccccc1F)C(=O)O; γGlu = O=C(O)[C@H](CCC(=O)[*:2])N[*:1]; αMe4Pal = C[C@](N)(Cc1ccncc1)C(=O)O; αMeY = C[C@](N)(Cc1ccc(O)cc1)C(=O)O; αMeF = C[C@](N)(Cc1ccccc1)C(=O)O; 4Pal = N[C@@H](Cc1ccncc1)C(=O)O; αMeL = CC(C)C[C@](C)(N)C(=O)O; αMeS = C[C@](N)(CO)C(=O)O; Orn = NCCC[C@H](N)C(=O)O; AEEA = NCCOCCOCC(=O)O; Aib = CC(C)(N)C(=O)O

Columns and labels:
Assay type in all cases: cell-based
hGLP-1R [1] = target: T1, hGLP-1R (Homo sapiens, UniProt P43220); assay: Functional cAMP activity in the presence of 1% HSA; details: read-out: cAMP Rel EC50, hGLP-1R
T1 sequence (P43220 24-463): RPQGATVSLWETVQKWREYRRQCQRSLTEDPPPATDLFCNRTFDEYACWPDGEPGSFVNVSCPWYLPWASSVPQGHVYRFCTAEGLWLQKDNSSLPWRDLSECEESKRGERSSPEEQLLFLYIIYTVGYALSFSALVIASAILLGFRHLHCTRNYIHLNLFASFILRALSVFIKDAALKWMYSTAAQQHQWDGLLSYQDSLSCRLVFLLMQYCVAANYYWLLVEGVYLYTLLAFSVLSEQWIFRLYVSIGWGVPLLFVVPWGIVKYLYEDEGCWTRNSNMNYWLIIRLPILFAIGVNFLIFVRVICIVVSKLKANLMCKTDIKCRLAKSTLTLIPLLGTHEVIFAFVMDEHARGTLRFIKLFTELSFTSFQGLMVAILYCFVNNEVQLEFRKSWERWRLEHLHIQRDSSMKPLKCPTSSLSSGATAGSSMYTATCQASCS

hGIPR [2] = target: T2, hGIPR (Homo sapiens, UniProt P48546); assay: Functional cAMP activity in the presence of 1% HSA; details: read-out: cAMP Rel EC50, hGIPR
T2 sequence (P48546 22-466): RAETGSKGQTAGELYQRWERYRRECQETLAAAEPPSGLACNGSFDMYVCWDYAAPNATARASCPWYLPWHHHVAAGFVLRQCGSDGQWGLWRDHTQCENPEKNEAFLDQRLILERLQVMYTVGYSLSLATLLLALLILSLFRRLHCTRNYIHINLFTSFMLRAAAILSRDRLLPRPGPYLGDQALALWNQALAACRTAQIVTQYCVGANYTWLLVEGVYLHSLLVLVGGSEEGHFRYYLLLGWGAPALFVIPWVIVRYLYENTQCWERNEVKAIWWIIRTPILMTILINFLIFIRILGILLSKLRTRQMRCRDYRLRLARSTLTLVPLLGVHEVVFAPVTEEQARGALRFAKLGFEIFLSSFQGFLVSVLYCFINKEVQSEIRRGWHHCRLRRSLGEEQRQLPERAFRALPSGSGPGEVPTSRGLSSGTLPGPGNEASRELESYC

hGLP-1R [3] = target: T1, hGLP-1R; assay: Functional cAMP activation in the presence of 0.1% casein (no HSA); details: read-out: Relative cAMP EC50, hGLP-1R;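 on Relative cAMP EC50, hGIPR: intracellular cAMP rise after 30 min at 37 °C read by HTRF against a standard curve, scaled between buffer alone (0%) and top control ligand concentration (100%), four-parameter fit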;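 on Relative cAMP EC50, hGLP-1R: intracellular cAMP rise after 30 min at 37 °C read by HTRF, normalized between buffer only (0%) and maximal control ligand (100%), four-parameter variable-slope fit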
hGIPR [4] = target: T2, hGIPR; assay: as above; details: read-out: Relative cAMP EC50, hGIPR
human GcgR = human GcgR (Homo sapiens, UniProt P47871); assay: Functional cAMP activity in the presence of 1% HSA; details: read-out: cAMP Rel EC50, hGcgR
Sequence of human GcgR (P47871 26-477): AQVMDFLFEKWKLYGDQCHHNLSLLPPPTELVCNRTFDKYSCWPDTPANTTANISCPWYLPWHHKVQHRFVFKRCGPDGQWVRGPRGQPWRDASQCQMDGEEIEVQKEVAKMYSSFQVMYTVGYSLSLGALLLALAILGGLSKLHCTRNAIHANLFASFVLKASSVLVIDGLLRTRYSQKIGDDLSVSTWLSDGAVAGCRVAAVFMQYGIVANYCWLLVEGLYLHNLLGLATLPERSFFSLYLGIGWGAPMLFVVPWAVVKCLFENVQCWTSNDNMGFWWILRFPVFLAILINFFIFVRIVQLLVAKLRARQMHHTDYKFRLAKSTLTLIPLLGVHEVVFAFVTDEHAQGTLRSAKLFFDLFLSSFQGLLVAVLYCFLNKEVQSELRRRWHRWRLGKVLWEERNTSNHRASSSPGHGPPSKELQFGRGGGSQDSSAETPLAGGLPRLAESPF

hGcgR = hGcgR (Homo sapiens, UniProt P47871); assay: Functional cAMP activation in the presence of 0.1% casein (no HSA); details: read-out: Relative cAMP EC50, hGcgR;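 further: intracellular cAMP rise after 30 min at 37 °C, read by HTRF against a cAMP standard curve, scaled from buffer only (0%) to maximal control ligand response (100%)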
Sequence of hGcgR (P47871 26-477): as above

[5] = in the presence of 0.1% casein (no HSA), geometric mean

Compound | EC50 (hGLP-1R [1]) [nM] | EC50 (hGIPR [2]) [nM] | EC50 (hGLP-1R [3]) [nM] | EC50 (hGIPR [4]) [nM] | EC50 (human GcgR) [nM] | EC50 (hGcgR) [nM] | EC50 (hGLP-1R [3]; [5]) [nM] | EC50 (hGIPR [4]; [5]) [nM] | EC50 (hGcgR; [5]) [nM]
H-Y[Aib]QGT[αMePhe(2-F)]TSD[4Pal]SILLD[Orn]K([γGlu-γGlu-C18 diacid])AQ[Aib]AFIEYLQEGGPSSGEPPPSGTEE-NH2 [Example 583] | 71 | 12.3 | 0.542 | 0.0692 | 1250 | 6.32 |  |  | 
H-Y[Aib]QGTFTSDFSK[αMeL]LDKK([AEEA-γGlu-C20 diacid])AQ[Aib]AFIEYLLEGGPSSGAPPP[γGlu]GE-NH2 [Example 53] | 1030 | 113 |  |  | 1780 |  | 3.31 | 0.518 | 4.19
H-Y[Aib]QGTFTSDFSK[αMeL]LDKK([AEEA-γGlu-C20 diacid])AQ[Aib]AFIEYLLAGGPSSGAPPPSGS-NH2 [Example 14] | 232 | 34.7 |  |  | 1420 |  | 1.67 | 0.17 | 7.23
Y[Aib]QGT[αMePhe(2-F)]TSDYSILLDKQAAK([AEEA-γGlu-C20 diacid])EFIEYLIEGGPSSGAPPPSEG-NH2 [Example 340] | 246 | 60.4 |  |  | 647 |  | 0.648 | 0.189 | 2.02
H-Y[Aib]QGT[αMePhe(2-F)]TSD[4Pal][αMeS]I[αMeL]LD[Orn]K([AEEA-γGlu-C18 diacid])AQ[αMe4Pal]EFI[dE][αMeY]LVEGGPSSGAPPPTGE-NH2 [Example 1152] | 43.8 | 1.21 |  |  | 287 |  | 0.371 | 0.0101 | 2.32
H-Y[Aib]QGT[αMePhe(2-F)]TSD[4Pal][αMeS]I[αMeL]LD[Orn]K([AEEA-γGlu-C18 diacid])AQ[αMe4Pal]EFI[dE][αMeY]LVEGGPSSGEPPPEGE-NH2 [Example 1159] | 64.1 | 1.29 |  |  | 238 |  | 0.45 | 0.0118 | 1.86
H-Y[Aib]QGT[αMePhe(2-F)]TSD[4Pal]SI[αMeL]LD[Orn]K([AEEA-γGlu-C18 diacid])AQ[αMe4Pal]EFI[dE][αMeY]LLEGGPSSGAPPPSGE-NH2 [Example 615] | 82.9 | 0.95 | 0.575 | 0.00825 | 697 | 3.93 |  |  | 
Y[Aib]QGT[αMePhe(2-F)]TSD[4Pal]SI[αMeL]LD[Orn]K([AEEA-γGlu-C18 diacid])AQ[αMe4Pal]EFI[dE][αMeY]LIEGGPSSGAPPPSGE-NH2 [Example 614] | 33.2 | 0.597 | 0.251 | 0.0065 | 724 | 6.36 |  |  | 
Y[Aib]QGTFTSD[4Pal]SR[αMeL]LDKK([AEEA-γGlu-C18 diacid])AQ[αMe4Pal]AFIEYLIEGGESSGAPPPSGS-NH2 [Example 792] | 619 | 108 |  |  | 376 |  | 2.99 | 0.55 | 1.91
H-Y[Aib]QGT[αMePhe(2-F)]TSD[4Pal]SI[αMeL]LD[Orn]K([AEEA-γGlu-C18 diacid])AQ[αMe4Pal][Orn]FI[dE][αMeY]LIEGGPSSGDPPPEGTGE-NH2 [Example 732] | 27.2 | 1.26 | 0.268 | 0.0118 | 327 | 2.18 |  |  | 
H-Y[Aib]QGTFTSD[4Pal]S[Orn][αMeL]LDKK([γGlu-γGlu-γGlu-C18 diacid])AQ[αMe4Pal]AFIEYLIE[Aib]GPSSGAPPPSGS-NH2 [Example 866] | 483 | 23.8 |  |  | 669 |  | 4.01 | 0.148 | 4.48
H-Y[Aib]QGTFTSDFS[Orn][αMeL]LDKK([γGlu-AEEA-γGlu-C18 diacid])AQ[Aib]AFIEYLLE[Aib]GESSGAPPPSGS-NH2 [Example 244] | 645 | 18.8 |  |  | 1230 |  | 7.68 | 0.0972 | 4.81
CC[C@H](C)[C@H](NC(=O)[C@H](Cc1ccccc1)NC(=O)[C@H](CCCN)NC(=O)C(C)(C)NC(=O)[C@H](CCC(N)=O)NC(=O)[C@H](C)NC(=O)[C@H](CCCCNC(=O)COCCOCCNC(=O)CC[C@H](NC(=O)CCCCCCCCCCCCCCCCC(=O)O)C(=O)O)NC(=O)[C@H](CCCN)NC(=O)[C@H](CC(=O)O)NC(=O)[C@H](CC(C)C)NC(=O)[C@](C)(CC(C)C)NC(=O)[C@@H](NC(=O)[C@](C)(CO)NC(=O)[C@H](Cc1ccncc1)NC(=O)[C@H](CC(=O)O)NC(=O)[C@H](CO)NC(=O)[C@@H](NC(=O)[C@](C)(Cc1ccccc1F)NC(=O)[C@@H](NC(=O)CNC(=O)[C@H](CCC(N)=O)NC(=O)C(C)(C)NC(=O)[C@@H](N)Cc1ccc(O)cc1)[C@@H](C)O)[C@@H](C)O)[C@@H](C)CC)C(=O)N[C@H](CCC(=O)O)C(=O)N[C@@](C)(Cc1ccc(O)cc1)C(=O)N[C@@H](CC(C)C)C(=O)N[C@@H](CC(C)C)C(=O)N[C@@H](CCC(=O)O)C(=O)NCC(=O)NCC(=O)N1CCC[C@H]1C(=O)N[C@@H](CO)C(=O)N[C@@H](CO)C(=O)NCC(=O)N[C@@H](CCC(=O)O)C(=O)N1CCC[C@H]1C(=O)N1CCC[C@H]1C(=O)N1CCC[C@H]1C(=O)N[C@@H](CCC(=O)O)C(N)=O [Example 377] (H-Y[Aib]QGT[αMePhe(2-F)]TSD[4Pal][αMeS]I[αMeL]LD[Orn]K([AEEA-γGlu-C18 diacid])AQ[Aib][Orn]FI[dE][αMeY]LLEGGPSSGEPPPE-NH2) | 29.4 | 11.1 |  |  | 163 |  | 0.367 | 0.0377 | 1.36
CC[C@H](C)[C@H](NC(=O)[C@H](Cc1ccccc1)NC(=O)[C@H](C)NC(=O)C(C)(C)NC(=O)[C@H](CCC(N)=O)NC(=O)[C@H](C)NC(=O)[C@H](CCCCNC(=O)COCCOCCNC(=O)CC[C@H](NC(=O)CCCCCCCCCCCCCCCCC(=O)O)C(=O)O)NC(=O)[C@H](CCCN)NC(=O)[C@H](CC(=O)O)NC(=O)[C@H](CC(C)C)NC(=O)[C@](C)(CC(C)C)NC(=O)[C@@H](NC(=O)[C@H](CO)NC(=O)[C@H](Cc1ccc(O)cc1)NC(=O)[C@H](CC(=O)O)NC(=O)[C@H](CO)NC(=O)[C@@H](NC(=O)[C@](C)(Cc1ccccc1)NC(=O)[C@@H](NC(=O)CNC(=O)[C@H](CCC(N)=O)NC(=O)C(C)(C)NC(=O)[C@@H](N)Cc1ccc(O)cc1)[C@@H](C)O)[C@@H](C)O)[C@@H](C)CC)C(=O)N[C@@H](CCC(=O)O)C(=O)N[C@@H](Cc1ccc(O)cc1)C(=O)N[C@@H](CC(C)C)C(=O)N[C@@H](CCC(=O)O)C(=O)N[C@@H](CCC(=O)O)C(=O)NCC(=O)NCC(=O)N1CCC[C@H]1C(=O)N[C@@H](CO)C(=O)N[C@@H](CO)C(=O)NCC(=O)N[C@@H](C)C(=O)N1CCC[C@H]1C(=O)N1CCC[C@H]1C(=O)N1CCC[C@H]1C(=O)N[C@@H](CCC(=O)O)C(N)=O [Example 397] (H-Y[Aib]QGT[αMeF]TSDYSI[αMeL]LD[Orn]K([AEEA-γGlu-C18 diacid])AQ[Aib]AFIEYLEEGGPSSGAPPPE-NH2) | 34.9 | 10.1 | 0.2 | 0.0247 | 1110 | 5.22 |  |  | 
H-Y[Aib]QGTFTSD[4Pal]SQ[αMeL]LD[Orn]K([AEEA-γGlu-C18 diacid])AQ[αMe4Pal]AFIE[αMeY]LIA[Aib]GPSSGAPPPSGSEE-NH2 [Example 1110] | 52 | 5.4 |  |  | 449 |  | 0.508 | 0.059 | 5.91
